The structures appear in SMILES notation. pIC50: −log10 of the molar value. Non-standard residues stand in square brackets, D forms with d. Residues, ends and D or L forms follow the SMILES beside them. Trp(4-Cl)(βS-Me) = C[C@@H](c1c[nH]c2cccc(Cl)c12)[C@H](N)C(=O)O; dPro(4R-(4-pyridylmethyl)) = O=C(O)[C@H]1C[C@@H](Cc2ccncc2)CN1; dPro(3S-(4-Br-benzyl)) = O=C(O)[C@@H]1NCC[C@@H]1Cc1ccc(Br)cc1; Trp(βS-Me,4-F) = C[C@@H](c1c[nH]c2cccc(F)c12)[C@H](N)C(=O)O; Bip(4'-COOH) = N[C@@H](Cc1ccc(-c2ccc(C(=O)O)cc2)cc1)C(=O)O; Ala(1-bicyclo(1.1.1)pentyl) = N[C@@H](CC12CC(C1)C2)C(=O)O; dPro(4R-Bzl(4-F)) = O=C(O)[C@H]1C[C@@H](Cc2ccc(F)cc2)CN1; 1Nal(3S-Me) = C[C@@H](c1cccc2ccccc12)[C@H](N)C(=O)O; Ala(pyrimidin-5-yl) = N[C@@H](Cc1cncnc1)C(=O)O; Phe(4-COOH) = N[C@@H](Cc1ccc(C(=O)O)cc1)C(=O)O; Pro(cis-4-F) = O=C(O)[C@@H]1C[C@H](F)CN1; cisHyp = O=C(O)[C@@H]1C[C@H](O)CN1; d(αMeD) = C[C@@](N)(CC(=O)O)C(=O)O; 4Pal = N[C@@H](Cc1ccncc1)C(=O)O; αMeK = C[C@](N)(CCCCN)C(=O)O; hSer = N[C@@H](CCO)C(=O)O; Orn = NCCC[C@H](N)C(=O)O; Dab = NCC[C@H](N)C(=O)O; Dap = NC[C@H](N)C(=O)O; Aib = CC(C)(N)C(=O)O

In general, pIC50 refers to the negative decadic logarithm of the IC50, by convention in mol/L.

In the experiment the target is T1, IL-1β (Homo sapiens, UniProt P01584).
T1 construct: purchased BioLegend 579404
T1 sequence (P01584 117-269): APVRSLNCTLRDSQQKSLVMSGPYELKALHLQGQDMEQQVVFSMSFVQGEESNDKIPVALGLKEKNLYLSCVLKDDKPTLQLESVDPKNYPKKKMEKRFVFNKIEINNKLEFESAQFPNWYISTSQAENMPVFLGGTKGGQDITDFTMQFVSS
The experiment in a line: IL-6 assay in MRC5 cells: inhibition of IL-1β induced IL-6 secretion (AlphaLISA). Format: cell-based. To be noted: inhibition of IL-1β induced IL-6 secretion in MRC5 cells; read-out: MRC5 IC50. The procedure, abridged:
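Compound was pre-incubated 1 h at ambient temperature with recombinant human IL-1β at 2λ EC80 before adding human lung fibroblast MRC5 cells (3000/well) in EMEM with 0.025% BSA. After overnight culture at 37 °C, 5% CO2, secreted IL-6 in conditioned medium was measured by AlphaLISA; IC50 from 4-parameter logistic fits.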
For orientation: Bead proximity is the source of the signal in Alpha formats.
Turning to `C[C@@H](c1c[nH]c2cccc(F)c12)[C@@H]1NC(=O)[C@@H]2C[C@H](F)CN2C(=O)CNC(=O)[C@H](Cc2ccc(C(=O)O)cc2)NC(=O)[C@H](CC23CC(C2)C3)NC(=O)[C@H](Cc2ccc(-c3ccc(C(=O)O)cc3)cc2)NC(=O)[C@H]2C[C@@H](Cc3ccc(F)cc3)CN2C(=O)CNC(=O)[C@H](CCN)NC(=O)[C@H](CCC(N)=O)NC(=O)[C@H](Cc2cncnc2)NC(=O)[C@](C)(CCCCN)NC(=O)[C@H](Cc2c[nH]c3ccccc23)NC(=O)[C@H](CCO)NC(=O)C(C)(C)NC1=O` [Example 147] (cyclo([Bip(4'-COOH)][Ala(1-bicyclo(1.1.1)pentyl)][Phe(4-COOH)]G[Pro(cis-4-F)][Trp(βS-Me,4-F)][Aib][hSer]W[αMeK][Ala(pyrimidin-5-yl)]Q[Dab]G[dPro(4R-Bzl(4-F))])), the pIC50 is 10.35.
`C[C@@H](c1c[nH]c2cccc(Cl)c12)[C@@H]1NC(=O)[C@@H]2C[C@H](F)CN2C(=O)CNC(=O)[C@H](Cc2ccc(C(=O)O)cc2)NC(=O)[C@H](Cc2ccncc2)NC(=O)[C@H](Cc2ccc(-c3ccc(C(=O)O)cc3)cc2)NC(=O)[C@H]2C[C@@H](Cc3ccc(F)cc3)CN2C(=O)CNC(=O)[C@H](CCN)NC(=O)[C@H](CCC(N)=O)NC(=O)[C@H](Cc2cncnc2)NC(=O)C(C)(C)NC(=O)[C@H](Cc2c[nH]c3ccccc23)NC(=O)[C@H](CCC(=O)O)NC(=O)C(C)(C)NC1=O` [Example 148] (cyclo([Bip(4'-COOH)][4Pal][Phe(4-COOH)]G[Pro(cis-4-F)][Trp(4-Cl)(βS-Me)][Aib]EW[Aib][Ala(pyrimidin-5-yl)]Q[Dab]G[dPro(4R-Bzl(4-F))])): the pIC50 was 10.49.
With `C[C@@H](c1cccc2ccccc12)[C@@H]1NC(=O)[C@@H]2C[C@H](F)CN2C(=O)CNC(=O)[C@H](Cc2ccc(C(=O)O)cc2)NC(=O)[C@H](Cc2ccncc2)NC(=O)[C@H](Cc2ccc(-c3ccc(C(=O)O)cc3)cc2)NC(=O)[C@H]2C[C@@H](Cc3ccc(F)cc3)CN2C(=O)CNC(=O)[C@H](CCN)NC(=O)[C@H](CCC(N)=O)NC(=O)[C@H](Cc2cncnc2)NC(=O)C(C)(C)NC(=O)[C@H](Cc2c[nH]c3ccccc23)NC(=O)[C@H](CCC(=O)O)NC(=O)C(C)(C)NC1=O` [Example 149] (cyclo([Bip(4'-COOH)][4Pal][Phe(4-COOH)]G[Pro(cis-4-F)][1Nal(3S-Me)][Aib]EW[Aib][Ala(pyrimidin-5-yl)]Q[Dab]G[dPro(4R-Bzl(4-F))])) the figure was 10.62.
Take `C[C@@H](c1c[nH]c2cccc(F)c12)[C@@H]1NC(=O)[C@@H]2C[C@H](F)CN2C(=O)CNC(=O)[C@H](Cc2ccc(C(=O)O)cc2)NC(=O)[C@H](Cc2ccncc2)NC(=O)[C@H](Cc2ccc(-c3ccc(C(=O)O)cc3)cc2)NC(=O)[C@H]2[C@@H](Cc3ccc(Br)cc3)CCN2C(=O)CNC(=O)[C@H](CN)NC(=O)[C@H](CCC(N)=O)NC(=O)[C@H](Cc2cncnc2)NC(=O)C(C)(C)NC(=O)[C@H](Cc2c[nH]c3ccccc23)NC(=O)[C@H](CCC(=O)O)NC(=O)C(C)(C)NC1=O` [Example 150] (cyclo([Bip(4'-COOH)][4Pal][Phe(4-COOH)]G[Pro(cis-4-F)][Trp(βS-Me,4-F)][Aib]EW[Aib][Ala(pyrimidin-5-yl)]Q[Dap]G[dPro(3S-(4-Br-benzyl))])): the pIC50 was 10.72.
Take `C[C@@H](c1c[nH]c2cccc(F)c12)[C@@H]1NC(=O)[C@@H]2C[C@H](F)CN2C(=O)CNC(=O)[C@H](Cc2ccc(C(=O)O)cc2)NC(=O)[C@H](Cc2ccncc2)NC(=O)[C@H](Cc2ccc(-c3ccc(C(=O)O)cc3)cc2)NC(=O)[C@H]2[C@@H](Cc3ccc(Br)cc3)CCN2C(=O)CNC(=O)[C@H](CCCN)NC(=O)[C@H](CCC(N)=O)NC(=O)[C@H](Cc2cncnc2)NC(=O)C(C)(C)NC(=O)[C@H](Cc2c[nH]c3ccccc23)NC(=O)[C@H](CCC(=O)O)NC(=O)C(C)(C)NC1=O` [Example 151] (cyclo([Bip(4'-COOH)][4Pal][Phe(4-COOH)]G[Pro(cis-4-F)][Trp(βS-Me,4-F)][Aib]EW[Aib][Ala(pyrimidin-5-yl)]Q[Orn]G[dPro(3S-(4-Br-benzyl))])): the pIC50 is 10.66.
With `C[C@@H](c1c[nH]c2cccc(F)c12)[C@@H]1NC(=O)[C@@H]2C[C@H](F)CN2C(=O)CNC(=O)[C@H](Cc2ccc(C(=O)O)cc2)NC(=O)[C@H](Cc2ccncc2)NC(=O)[C@H](Cc2ccc(-c3ccc(C(=O)O)cc3)cc2)NC(=O)[C@H]2[C@@H](Cc3ccc(Br)cc3)CCN2C(=O)CNC(=O)[C@H](CCCCN)NC(=O)[C@H](CCC(N)=O)NC(=O)[C@H](Cc2cncnc2)NC(=O)C(C)(C)NC(=O)[C@H](Cc2c[nH]c3ccccc23)NC(=O)[C@H](CCC(=O)O)NC(=O)C(C)(C)NC1=O` [Example 152] (cyclo([Bip(4'-COOH)][4Pal][Phe(4-COOH)]G[Pro(cis-4-F)][Trp(βS-Me,4-F)][Aib]EW[Aib][Ala(pyrimidin-5-yl)]QKG[dPro(3S-(4-Br-benzyl))])), the pIC50 is 10.51.
With `C[C@@H](c1cccc2ccccc12)[C@@H]1NC(=O)[C@@H]2C[C@H](F)CN2C(=O)CNC(=O)[C@H](Cc2ccc(C(=O)O)cc2)NC(=O)[C@H](Cc2ccncc2)NC(=O)[C@H](Cc2ccc(-c3ccc(C(=O)O)cc3)cc2)NC(=O)[C@H]2[C@@H](Cc3ccc(Br)cc3)CCN2C(=O)CNC(=O)[C@H](CCN)NC(=O)[C@H](CCC(N)=O)NC(=O)[C@H](Cc2cncnc2)NC(=O)C(C)(C)NC(=O)[C@H](Cc2c[nH]c3ccccc23)NC(=O)[C@H](CCC(=O)O)NC(=O)C(C)(C)NC1=O` [Example 153] (cyclo([Bip(4'-COOH)][4Pal][Phe(4-COOH)]G[Pro(cis-4-F)][1Nal(3S-Me)][Aib]EW[Aib][Ala(pyrimidin-5-yl)]Q[Dab]G[dPro(3S-(4-Br-benzyl))])) the figure was 10.72.
In the case of `C[C@@H](c1c[nH]c2cccc(F)c12)[C@@H]1NC(=O)[C@@H]2C[C@H](F)CN2C(=O)CNC(=O)[C@H](Cc2ccc(C(=O)O)cc2)NC(=O)[C@H](Cc2ccncc2)NC(=O)[C@H](Cc2ccc(-c3ccc(C(=O)O)cc3)cc2)NC(=O)[C@H]2C[C@@H](Cc3ccncc3)CN2C(=O)CNC(=O)[C@H](CCN)NC(=O)[C@H](CCC(N)=O)NC(=O)[C@H](Cc2cncnc2)NC(=O)[C@@](C)(CC(=O)O)NC(=O)[C@H](Cc2c[nH]c3ccccc23)NC(=O)[C@H](CO)NC(=O)C(C)(C)NC1=O` [Example 154] (cyclo([Bip(4'-COOH)][4Pal][Phe(4-COOH)]G[Pro(cis-4-F)][Trp(βS-Me,4-F)][Aib]SW[d(αMeD)][Ala(pyrimidin-5-yl)]Q[Dab]G[dPro(4R-(4-pyridylmethyl))])) it was 10.96; in that of `C[C@@H](c1c[nH]c2cccc(F)c12)[C@@H]1NC(=O)[C@@H]2C[C@H](F)CN2C(=O)CNC(=O)[C@H](Cc2ccc(C(=O)O)cc2)NC(=O)[C@H](CC23CC(C2)C3)NC(=O)[C@H](Cc2ccc(-c3ccc(C(=O)O)cc3)cc2)NC(=O)[C@H]2C[C@@H](Cc3ccncc3)CN2C(=O)CNC(=O)[C@H](CCN)NC(=O)[C@H](CCC(N)=O)NC(=O)[C@H](Cc2cncnc2)NC(=O)[C@@](C)(CC(=O)O)NC(=O)[C@H](Cc2c[nH]c3ccccc23)NC(=O)[C@H](CO)NC(=O)C(C)(C)NC1=O` [Example 155] (cyclo([Bip(4'-COOH)][Ala(1-bicyclo(1.1.1)pentyl)][Phe(4-COOH)]G[Pro(cis-4-F)][Trp(βS-Me,4-F)][Aib]SW[d(αMeD)][Ala(pyrimidin-5-yl)]Q[Dab]G[dPro(4R-(4-pyridylmethyl))])), 10.96.
In the case of `C[C@@H](c1c[nH]c2cccc(F)c12)[C@@H]1NC(=O)[C@@H]2C[C@H](F)CN2C(=O)CNC(=O)[C@H](Cc2ccc(C(=O)O)cc2)NC(=O)[C@H](Cc2ccncc2)NC(=O)[C@H](Cc2ccc(-c3ccc(C(=O)O)cc3)cc2)NC(=O)[C@H]2C[C@@H](Cc3ccncc3)CN2C(=O)CNC(=O)[C@H](CO)NC(=O)[C@H](CCC(N)=O)NC(=O)[C@H](Cc2cncnc2)NC(=O)[C@@](C)(CC(=O)O)NC(=O)[C@H](Cc2c[nH]c3ccccc23)NC(=O)[C@H](CO)NC(=O)C(C)(C)NC1=O` [Example 156] (cyclo([Bip(4'-COOH)][4Pal][Phe(4-COOH)]G[Pro(cis-4-F)][Trp(βS-Me,4-F)][Aib]SW[d(αMeD)][Ala(pyrimidin-5-yl)]QSG[dPro(4R-(4-pyridylmethyl))])) it was 10.82; in that of `C[C@@H](c1c[nH]c2cccc(F)c12)[C@@H]1NC(=O)[C@@H]2C[C@H](O)CN2C(=O)CNC(=O)[C@H](Cc2ccc(C(=O)O)cc2)NC(=O)[C@H](CC23CC(C2)C3)NC(=O)[C@H](Cc2ccc(-c3ccc(C(=O)O)cc3)cc2)NC(=O)[C@H]2C[C@@H](Cc3ccncc3)CN2C(=O)CNC(=O)[C@H](CO)NC(=O)[C@H](CCC(N)=O)NC(=O)[C@H](Cc2cncnc2)NC(=O)[C@@](C)(CC(=O)O)NC(=O)[C@H](Cc2c[nH]c3ccccc23)NC(=O)[C@H](CO)NC(=O)C(C)(C)NC1=O` [Example 157] (cyclo([Bip(4'-COOH)][Ala(1-bicyclo(1.1.1)pentyl)][Phe(4-COOH)]G[cisHyp][Trp(βS-Me,4-F)][Aib]SW[d(αMeD)][Ala(pyrimidin-5-yl)]QSG[dPro(4R-(4-pyridylmethyl))])), 10.42.
Turning to `C[C@@H](c1c[nH]c2cccc(F)c12)[C@@H]1NC(=O)[C@@H]2C[C@H](F)CN2C(=O)CNC(=O)[C@H](Cc2ccc(C(=O)O)cc2)NC(=O)[C@H](CC23CC(C2)C3)NC(=O)[C@H](Cc2ccc(-c3ccc(C(=O)O)cc3)cc2)NC(=O)[C@H]2C[C@@H](Cc3ccncc3)CN2C(=O)CNC(=O)[C@H](CO)NC(=O)[C@H](CCC(N)=O)NC(=O)[C@H](Cc2cncnc2)NC(=O)[C@@](C)(CC(=O)O)NC(=O)[C@H](Cc2c[nH]c3ccccc23)NC(=O)[C@H](CO)NC(=O)C(C)(C)NC1=O` [Example 158] (cyclo([Bip(4'-COOH)][Ala(1-bicyclo(1.1.1)pentyl)][Phe(4-COOH)]G[Pro(cis-4-F)][Trp(βS-Me,4-F)][Aib]SW[d(αMeD)][Ala(pyrimidin-5-yl)]QSG[dPro(4R-(4-pyridylmethyl))])), the pIC50 is 10.89.

Source of the values: patent US20260242419A1, “A CYCLIC PEPTIDE FOR TRAPPING INTERLEUKIN-1 BETA” (Merck Sharp & Dohme LLC, priority 2023, published 2026).
